Experimental data published in ChEMBL document CHEMBL1201862, “PubChem BioAssay data set” (2004).
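These data come from cells grown in 96-well plates and exposed to compound for 48 hours at five concentrations. GI50: concentration for 50% inhibition of growth.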 Active and inactive are the calls of the source. Cut-off read from the data, not from the text of the source: active = GI50 up to about 1.1 µM and inactive = higher.

Assays:
Experiment in all cases: NCI anticancer screen, dose series, 48 h
SF-295 = system: SF-295
HL-60 = system: HL-60
SF-268 = system: SF-268
OVCAR-3 = system: OVCAR-3
SK-MEL-2 = system: SK-MEL-2
HCT-116 = system: HCT-116
K562 = system: K562
HCT-15 = system: HCT-15
SF-539 = system: SF-539
MOLT-4 = system: MOLT-4
COLO 205 = system: COLO 205
SNB-19 = system: SNB-19
NCI-H23 = system: NCI-H23
SN12C = system: SN12C
KM12 = system: KM12
SK-MEL-5 = system: SK-MEL-5
UO-31 = system: UO-31
SK-MEL-28 = system: SK-MEL-28
OVCAR-8 = system: OVCAR-8
UACC-62 = system: UACC-62

| Compound | GI50 (SF-295) | GI50 (HL-60) | GI50 (SF-268) | GI50 (OVCAR-3) | GI50 (SK-MEL-2) | GI50 (HCT-116) | GI50 (K562) | GI50 (HCT-15) [µM] | GI50 (SF-539) | GI50 (MOLT-4) | GI50 (COLO 205) | GI50 (SNB-19) | GI50 (NCI-H23) | GI50 (SN12C) | GI50 (KM12) | GI50 (SK-MEL-5) | GI50 (UO-31) | GI50 (SK-MEL-28) | GI50 (OVCAR-8) | GI50 (UACC-62) |
| --- | --- | --- | --- | --- | --- | --- | --- | --- | --- | --- | --- | --- | --- | --- | --- | --- | --- | --- | --- | --- |
| Cc1c2[nH]c3ccc(Br)cc3c2c(C)c2nccc(O)c12 | 14.5 µM (inactive) | 12.1 µM (inactive) | 14.8 µM (inactive) | 14.6 µM (inactive) | 17.5 µM (inactive) | 13.8 µM (inactive) | 17 µM (inactive) | 15.1 | 15.6 µM (inactive) | 5.57 µM (inactive) | 12.5 µM (inactive) | 14.5 µM (inactive) | 16 µM (inactive) | 13.2 µM (inactive) | 12.4 µM (inactive) | 22.3 µM (inactive) | 11.1 µM (inactive) | 16.9 µM (inactive) | 20.7 µM (inactive) |  |
| O=C1C(=CNC(=S)c2ccccc2)C(=O)c2ccccc21 | 91 µM (inactive) | 4.28 µM (inactive) | 71.8 µM (inactive) | 76 µM (inactive) | 39.5 µM (inactive) | 46.7 µM (inactive) | 30.1 µM (inactive) | 32.1 | 58.5 µM (inactive) | 27.5 µM (inactive) | 69.7 µM (inactive) | 93.8 µM (inactive) | 51.5 µM (inactive) | 46.7 µM (inactive) | 62.1 µM (inactive) | 58.9 µM (inactive) | 25.8 µM (inactive) | > 100 µM (inactive) | 54.6 µM (inactive) | 28.8 µM (inactive) |
| CC1C(NNC(N)=O)Oc2cc3c(cc2C1c1ccccc1O)OCO3 (centres undefined) | 27 µM (inactive) | 14.9 µM (inactive) | 39.6 µM (inactive) | 33.1 µM (inactive) | 35.6 µM (inactive) | 26.2 µM (inactive) | 22.2 µM (inactive) | 33.6 | 24.2 µM (inactive) | 30 µM (inactive) | > 10 µM (inactive) | 91 µM (inactive) | 89.9 µM (inactive) | 48.3 µM (inactive) | 31.2 µM (inactive) | 27.4 µM (inactive) | 52.5 µM (inactive) | 31 µM (inactive) |  | 30.4 µM (inactive) |
| CC(=O)O[C@H]1[C@@H](OC(C)=O)C(C)(C)/C=C/[C@H](C)C(=O)[C@@]2(OC(C)=O)C[C@@](C)(OC(C)=O)[C@H](OC(C)=O)[C@@H]2[C@H]2OC(=O)CC[C@@]2(OC(=O)c2ccccc2)[C@@H]1OCC(C)C | 3.63 µM (inactive) | 4.11 µM (inactive) | > 100 µM (inactive) | > 100 µM (inactive) | > 100 µM (inactive) | 19.5 µM (inactive) | 4.51 µM (inactive) | > 100 | 5.47 µM (inactive) | 4.76 µM (inactive) | 5.15 µM (inactive) | > 100 µM (inactive) | 38.7 µM (inactive) | > 100 µM (inactive) | 39.1 µM (inactive) | 33.5 µM (inactive) | 22.2 µM (inactive) |  | > 100 µM (inactive) | 46.5 µM (inactive) |
| O=C1C=CC2(O[C@@H](Cc3ccccc3)[C@H](Cc3ccccc3)O2)C(SC(=O)c2ccccc2)C1 (some centres undefined) | 1.95 µM (inactive) | 1.18 µM (inactive) | 0.904 µM (active) | 0.594 µM (active) | 1.66 µM (inactive) | 0.158 µM (active) | 1.64 µM (inactive) | 0.298 | 1.66 µM (inactive) | 0.19 µM (active) | 1.73 µM (inactive) | 1.94 µM (inactive) | 1.69 µM (inactive) | 1.62 µM (inactive) | 2.31 µM (inactive) | 1.66 µM (inactive) | 0.586 µM (active) | 1.81 µM (inactive) | 0.209 µM (active) | 2.24 µM (inactive) |
| O=C1N[C@@H]([C@H](CCCCCO)OC(=O)c2ccccc2)CO1 | > 100 µM (inactive) | > 100 µM (inactive) |  | > 100 µM (inactive) | > 100 µM (inactive) | > 100 µM (inactive) | > 100 µM (inactive) | > 100 | > 100 µM (inactive) | > 100 µM (inactive) | > 10 µM (inactive) | > 100 µM (inactive) |  | > 100 µM (inactive) | > 100 µM (inactive) | > 100 µM (inactive) | > 100 µM (inactive) | > 100 µM (inactive) | > 100 µM (inactive) | > 100 µM (inactive) |
| Cn1c(=O)nc2n(-c3ccc(Cl)cc3Cl)c3ccccc3nc-2c1=O | 2.33 µM (inactive) | 3.18 µM (inactive) | 25.9 µM (inactive) | 2.1 µM (inactive) | 2.87 µM (inactive) | 2.18 µM (inactive) | 3.92 µM (inactive) | 3.05 | 6.58 µM (inactive) | 10.7 µM (inactive) | 1.7 µM (inactive) | 13.7 µM (inactive) | 3.27 µM (inactive) |  | 3.96 µM (inactive) | 1.41 µM (inactive) | 12 µM (inactive) | 11.4 µM (inactive) | 2.74 µM (inactive) | 2.04 µM (inactive) |
